Results taken from patent US20020035061A1, “COMPOSITIONS AND METHODS FOR TREATING INFECTIONS USING CATIONIC PEPTIDES ALONE OR IN COMBINATION WITH ANTIBIOTICS” (priority 1996, published 2002).
Values after ≈ are worked out from the molar mass of the structure shown. Read-outs that look alike come from different tables or passages of the source.

Experiments:
E. faecium = format: cell-based; settings: E. faecium strain EFM003
H. influenzae = assay: Agarose dilution assay (MIC); format: cell-based; settings: H. influenzae strain HIN002
S. aureus = format: cell-based; settings: S. aureus strain SA010
E. coli = format: cell-based; settings: E. coli strain ECO001
A. calcoaceticus = format: cell-based; settings: A. calcoaceticus strain AC001
P. aeruginosa = format: cell-based; settings: P. aeruginosa strain PA041
S. maltophilia = format: cell-based; settings: S. maltophilia strain SMA001
[1] = system: inherently resistant microorganisms; assay: microbe, parasite or virus in culture; format: cell-based; settings: S. aureus MRSA
S. pneumoniae = assay: Agarose dilution assay (MIC); format: cell-based
S. pyogenes = assay: Agarose dilution assay (MIC); format: cell-based; settings: S. pyogenes strain SPY002
E. faecalis = format: cell-based; settings: E. faecalis strain EFS004
P. mirabilis = assay: Agarose dilution assay (MIC); format: cell-based; settings: P. mirabilis strain PM001
K. pneumoniae = format: cell-based; settings: K. pneumoniae strain KP002
bacterial isolates = assay: microbe, parasite or virus in culture; format: cell-based; settings: for Peptide MIC Alone: Piperacillin section; for FIC: peptide + Piperacillin
[2] = system: MSSA (Smith, ATCC # 19640); assay: In vivo efficacy, MSSA infection; parameters: species or system S. aureus; settings: 18 mg/kg ip, formulation D, 60 min post-infection; end of eight day observation
[3] = system: P388ADR, lymphocytic leukemia, multidrug resistant; assay: Cell death by Cytotox (Promega) lactate dehydrogenase release; format: cell-based; settings: LDH release
Description: (§1) In addition, APO-peptides and parent peptides are tested against a panel of cancer cell lines. Cell death is measured using the Cytotox (Promega) assay kit which measures the release of lactate dehydrogenase.
(§2) PBL, peripheral blood lymphocytes; HUVEC, human umbilical vein endothelial cells; H460,non-small lung tumor; K562, chronic myelogenous leukemia; DoHH-2, B-cell cell lymphoma; P388, lymphocytic leukemia; P388ADR, lymphocytic leukemia, multidrug resistant; MCF-7, breast carcinoma; MCF-7ADR, breast carcinoma, multidrug resistant.

[4] = system: DoHH-2, B-cell cell lymphoma; assay: as above; format: cell-based; settings: LDH release
Description: as §1, §2

[5] = system: HUVEC, human umbilical vein endothelial cells; assay: as above; format: cell-based; settings: LDH release
Description: as §1, §2

[6] = system: P388, lymphocytic leukemia; assay: as above; format: cell-based; settings: LDH release
Description: as §1, §2

[7] = system: K562, chronic myelogenous leukemia; assay: as above; format: cell-based; settings: LDH release
Description: as §1, §2

[8] = system: H460, non-small lung tumor; assay: as above; format: cell-based; settings: LDH release
Description: as §1, §2

MCF-7, breast carcinoma = assay: as above; format: cell-based; settings: LDH release
Description: as §1, §2

[9] = system: MCF-7ADR, breast carcinoma, multidrug resistant; assay: as above; format: cell-based; settings: LDH release
Description: as §1, §2

[10] = system: PBL, peripheral blood lymphocytes; assay: as above; format: cell-based; settings: LDH release
Description: as §1, §2

S. marcescens = format: cell-based; settings: S. marcescens strain SMS004
E. cloacae = format: cell-based; settings: E. cloacae strain ECL007
[11] = system: microorganisms with acquired resistance; assay: microbe, parasite or virus in culture; format: cell-based; settings: for Peptide MIC Alone: Piperacillin section; for FIC: peptide + Piperacillin
[12] = system: mammalian red blood cells; settings: 37° C., 1 hour
Description: Candidate cationic peptides may be further tested for their toxicity to normal mammalian cells. An exemplary assay is a red blood cell (RBC) (erythrocyte) hemolysis assay. Briefly, in this assay, red blood cells are isolated from whole blood, typically by centrifugation, and washed free of plasma components. A 5% (v/v) suspension of erythrocytes in isotonic saline is incubated with different concentrations of peptide analogue. […] After incubation for approximately 1 hour at 37° C., the cells are centrifuged, and the absorbance of the supernatant at 540 nm is determined. A relative measure of lysis is determined by comparison to absorbance after complete lysis of erythrocytes using NH4Cl or equivalent (establishing a 100% value). A peptide with <10% lysis at 100 μg/ml is suitable. Preferably, there is <5% lysis at 100 μg/ml. Such peptides that are not lytic, or are only moderately lytic, are desirable and suitable for further screening.
Cationic peptides are tested for toxicity towards eukaryotic cells by measuring the extent of lysis of mammalian red blood cells (RBC). Briefly, in this assay, red blood cells are separated from whole blood by centrifugation and washed free of plasma components. A 5% (v/v) washed red blood cell suspension is prepared in isotonic saline. An aliquot of peptide in formulation is then added and mixed in. After incubation at 37° C. for 1 hour with constant agitation, the solution is centrifuged and the supernatant measured for absorbance at 540 nm to detect released hemoglobin.
A combination of cationic peptide and antibiotic agent is tested for toxicity towards eukaryotic cells by measuring the extent of lysis of mammalian red blood cells. Briefly, red blood cells are separated from whole blood by centrifugation, washed free of plasma components, and resuspended to a 5% (v/v) suspension in isotonic saline. […] Following incubation with constant agitation at 37° C. for 1 hour, the solution is centrifuged, and the absorbance of the supernatant is measured at 540 nm, which detects released hemoglobin. […]

[13] = Single dose toxicity, intraperitoneal injection, formulations; settings: mouse, in vivo, ip, outbred ICR mice (Table 32)
Description: The single dose toxicity of a cationic peptide and antibiotic agent combination is examined in outbred ICR mice. Intraperitoneal injection of the combination in isotonic saline is carried out at increasing dose levels. The survival of the animals is monitored for 7 days. The number of animals surviving at each dose level is used to determine the maximum tolerated dose (MTD). In addition, the MTD can be determined after administration of the peptide and agent by different routes, at different time points, and in different formulations.

[14] = Cell death by Cytotox (Promega) lactate dehydrogenase release; format: cell-based; settings: LDH release
Description: as §1, §2

ILKKWPWWPWRRK [MBI 11E3CN]
MIC (E. faecium): 2 µg/mL
MIC (H. influenzae): >128 µg/mL
MIC (S. aureus): 2 µg/mL
MIC (E. coli): 4 µg/mL
MIC (A. calcoaceticus): 16 µg/mL
MIC (P. aeruginosa): 64 µg/mL
MIC (S. maltophilia): 32 µg/mL
Peptide MIC + Piperacillin [1]: 2 µg/mL
Peptide MIC Alone ([1]; Piperacillin section): 4 µg/mL
FIC ([1]; peptide + Piperacillin): 0.51
MIC (S. pneumoniae; S. pneumoniae strain SBSPN2): >128 µg/mL
MIC (S. pneumoniae; S. pneumoniae strain SPN044): >128 µg/mL
MIC (S. pyogenes): 16 µg/mL
MIC (E. faecalis): 8 µg/mL
MIC (P. mirabilis): >128 µg/mL
MIC (K. pneumoniae): 32 µg/mL
Peptide MIC + Piperacillin (bacterial isolates; H. influenzae 1): 4 µg/mL
Piperacillin MIC + Peptide (bacterial isolates; H. influenzae 1): 32 µg/mL
Peptide MIC Alone (bacterial isolates; H. influenzae 1): >128 µg/mL
Peptide MIC + Piperacillin (bacterial isolates; H. influenzae 2): 16 µg/mL
Piperacillin MIC + Peptide (bacterial isolates; H. influenzae 2): 8 µg/mL
Peptide MIC Alone (bacterial isolates; H. influenzae 2): >128 µg/mL
Peptide MIC + Piperacillin (bacterial isolates; P. aeruginosa 23): 1 µg/mL
Piperacillin MIC + Peptide (bacterial isolates; P. aeruginosa 23): 32 µg/mL
Peptide MIC Alone (bacterial isolates; P. aeruginosa 23): 64 µg/mL
Peptide MIC + Piperacillin (bacterial isolates; P. aeruginosa 32): 8 µg/mL
Piperacillin MIC + Peptide (bacterial isolates; P. aeruginosa 32): 32 µg/mL
Peptide MIC Alone (bacterial isolates; P. aeruginosa 32): 64 µg/mL
Peptide MIC + Piperacillin (bacterial isolates; S. aureus 19 MRSA): 1 µg/mL
Piperacillin MIC + Peptide (bacterial isolates; S. aureus 19 MRSA): 64 µg/mL
Peptide MIC Alone (bacterial isolates; S. aureus 19 MRSA): 4 µg/mL
Peptide MIC + Piperacillin (bacterial isolates; S. maltophilia 11): 64 µg/mL
Piperacillin MIC + Peptide (bacterial isolates; S. maltophilia 11): 2 µg/mL
Peptide MIC Alone (bacterial isolates; S. maltophilia 11): 128 µg/mL
Peptide MIC + Piperacillin (bacterial isolates; S. marcescens SB1): 2 µg/mL
Piperacillin MIC + Peptide (bacterial isolates; S. marcescens SB1): 16 µg/mL
Peptide MIC Alone (bacterial isolates; S. marcescens SB1): >128 µg/mL
FIC (bacterial isolates; H. influenzae 1): 0.52
FIC (bacterial isolates; H. influenzae 2): 0.31
FIC (bacterial isolates; P. aeruginosa 23): 0.27
FIC (bacterial isolates; P. aeruginosa 32): 0.63
FIC (bacterial isolates; S. aureus 19 MRSA): 0.50
FIC (bacterial isolates; S. maltophilia 11): 0.51
FIC (bacterial isolates; S. marcescens SB1): 0.26
% Survival [2]: 70%
LC50 ± S.E., P388 ADR [3]: 7.9 ± 3 µg/mL
LC50 ± S.E., DoHH-2 [4]: 3.6 µg/mL
LC50 ± S.E., HUVEC [5]: 117 ± 7 µg/mL
LC50 ± S.E., P388 [6]: 13.9 ± 3 µg/mL
LC50 ± S.E., K562 [7]: 9 µg/mL
LC50 ± S.E., H460 [8]: 18 µg/mL
LC50 ± S.E., MCF-7 (MCF-7, breast carcinoma): 5.6 ± 2 µg/mL
LC50 ± S.E., MCF-7 ADR [9]: 5.3 ± 1 µg/mL
LC50 ± S.E., PBL [10]: 22 ± 11 µg/mL
MIC (S. marcescens): >128 µg/mL
MIC (E. cloacae): >128 µg/mL
Peptide MIC + Piperacillin ([11]; A. calcoaceticus 3): 8 µg/mL
Piperacillin MIC + Peptide ([11]; A. calcoaceticus 3): 16 µg/mL
Peptide MIC Alone ([11]; A. calcoaceticus 3): 32 µg/mL
Peptide MIC + Piperacillin ([11]; H. influenzae 1): 64 µg/mL
Piperacillin MIC + Peptide ([11]; H. influenzae 1): 8 µg/mL
Peptide MIC Alone ([11]; H. influenzae 1): >128 µg/mL
Peptide MIC + Piperacillin ([11]; H. influenzae 2): 16 µg/mL
Piperacillin MIC + Peptide ([11]; H. influenzae 2): 8 µg/mL
Peptide MIC Alone ([11]; H. influenzae 2): >128 µg/mL
Peptide MIC + Piperacillin ([11]; P. aeruginosa 7): 32 µg/mL
Piperacillin MIC + Peptide ([11]; P. aeruginosa 7): 64 µg/mL
Peptide MIC Alone ([11]; P. aeruginosa 7): 64 µg/mL
Peptide MIC + Piperacillin ([11]; P. aeruginosa 23): 1 µg/mL
Piperacillin MIC + Peptide ([11]; P. aeruginosa 23): 32 µg/mL
Peptide MIC Alone ([11]; P. aeruginosa 23): 64 µg/mL
Peptide MIC + Piperacillin ([11]; S. maltophilia 3): 16 µg/mL
Piperacillin MIC + Peptide ([11]; S. maltophilia 3): 16 µg/mL
Peptide MIC Alone ([11]; S. maltophilia 3): 32 µg/mL
Peptide MIC + Piperacillin ([11]; S. maltophilia 4): 16 µg/mL
Piperacillin MIC + Peptide ([11]; S. maltophilia 4): 16 µg/mL
Peptide MIC Alone ([11]; S. maltophilia 4): 32 µg/mL
Peptide MIC + Piperacillin ([11]; S. marcescens SB1): 2 µg/mL
Piperacillin MIC + Peptide ([11]; S. marcescens SB1): 16 µg/mL
Peptide MIC Alone ([11]; S. marcescens SB1): >128 µg/mL
FIC ([11]; A. calcoaceticus 3): 0.75
FIC ([11]; H. influenzae 1): 0.38
FIC ([11]; H. influenzae 2): 0.31
FIC ([11]; P. aeruginosa 7): 1.00
FIC ([11]; P. aeruginosa 23): 0.27
FIC ([11]; S. maltophilia 3): 0.75
FIC ([11]; S. maltophilia 4): 0.75
FIC ([11]; S. marcescens SB1): 0.26

CC[C@H](C)[C@H](NC(=O)[C@H](CC(C)C)NC(=O)[C@H](C)NC(=O)[C@@H]1CCCN1C(=O)[C@H](CC(C)C)NC(=O)CNC(=O)[C@@H](NC(=O)[C@@H](NC(=O)[C@H](CC(C)C)NC(=O)[C@@H](NC(=O)[C@H](CCCCN)NC(=O)[C@H](CCCCN)NC(=O)[C@@H](NC(=O)[C@H](C)NC(=O)[C@@H](NC(=O)[C@@H](NC(=O)[C@H](CC(C)C)NC(=O)[C@H](CCCCN)NC(=O)[C@H](CCCCN)NC(=O)[C@@H](NC(=O)[C@H](Cc1ccccc1)NC(=O)[C@H](CO)NC(=O)[C@H](CCCCN)NC(=O)[C@H](Cc1c[nH]c2ccccc12)NC(=O)[C@@H](N)CCCCN)[C@@H](C)CC)[C@@H](C)O)[C@@H](C)O)C(C)C)C(C)C)[C@@H](C)O)[C@@H](C)O)C(=O)N[C@@H](CO)C(=O)O [MBI 29]
% Lysis [12]: 1.9%
MTD at 7 days [13]: 24 mg/kg
CC50 ([14]; DoHH-2 B-cell lymphoma cells, read-out: LC50 ± S.E., DoHH-2): 2.1 ± 0.5 µg/mL (≈ 0.731 µM)
CC50 ([14]; H460 non-small lung tumor cells, read-out: LC50 ± S.E., H460): 12.6 ± 10 µg/mL (≈ 4.39 µM)
CC50 ([14]; K562, read-out: LC50 ± S.E., K562): 1 µg/mL (≈ 0.348 µM)
CC50 ([14]; MCF-7ADR multidrug resistant breast carcinoma cells, read-out: LC50 ± S.E., MCF-7 ADR): 3.2 ± 1 µg/mL (≈ 1.11 µM)
CC50 ([14]; MCF-7 breast carcinoma cells, read-out: LC50 ± S.E., MCF-7): 4 ± 2 µg/mL (≈ 1.39 µM)
CC50 ([14]; P388, read-out: LC50 ± S.E., P388): 1.4 ± 0.5 µg/mL (≈ 0.487 µM)
CC50 ([14]; P388 ADR, read-out: LC50 ± S.E., P388 ADR): 2 ± 0.2 µg/mL (≈ 0.696 µM)
CC50 ([14]; PBL, peripheral blood lymphocytes, read-out: LC50 ± S.E., PBL): 12 ± 10 µg/mL (≈ 4.18 µM)
CC50 ([14]; human, human umbilical vein endothelial cells (HUVEC), read-out: LC50 ± S.E., HUVEC): 10 µg/mL (≈ 3.48 µM)
